Reference: patent US20170112861A1, “DRUG DELIVERY ENHANCER COMPRISING SUBSTANCE FOR ACTIVATING LYSOPHOSPHOLIPID RECEPTORS” (Osaka University, priority 2014, published 2017)

What was measured:
[1] = tested on: Mouse pancreatic vascular endothelial cell line (MS-1); experiment: In vitro barrier function of endothelial cell-cell junctions (ECIS-Zθ, resistance between cells Rb); format: cell-based; conditions: MS-1 cells, 10 μM
Description: In vitro barrier function of the cell-cell junctions of vascular endothelial cells in the presence of LPA or VPC 31144 (S) was analyzed using a real-time cell ECIS-Zθ analyzer (Applied Biophysics).
LPA and VPC 31144 (S) were each dissolved in 50% ethanol as a 10 mM LPA stock solution and stored at −30° C. Before use, the LPA stock solution was thawed and homogenized with an ultrasonic cleaner (SND Co., Ltd.) for 1 minute. The solution was diluted in a serum-free culture medium supplemented with 0.1% BSA to a concentration of 10 μM.
Mouse pancreatic vascular endothelial cell line (MS-1) was used. The cells were suspended in DMEM (Sigma) containing 5% FBS. The cell suspension was seeded on a well plate with electrodes (8W10E+, 8 wells) specially designed for the analyzer at a density of 1×10^5 cells in 400 μL per well, and the cells were cultured overnight in an incubator to confluence. The medium was replaced by serum-free culture medium containing 0.1% BSA, and the cells were incubated for 4 hours. The medium was replaced by culture medium (serum-free culture medium containing 0.1% BSA) containing 10 μM LPA or VPC 31144 (S). The medium of the control cultures was replaced by serum-free culture medium containing 0.1% BSA. After replacement of the medium, resistance between cells (Rb) was measured in real time to evaluate the barrier function.

[2] = tested on: newly formed blood vessels with increased permeability; experiment: Hindlimb ischemia model, edema (hindlimb circumference); format: in vivo, mice; conditions: LPA 3 mg/kg i.p. once daily for three days, 24 hours after final administration, vs control
Text: A hindlimb ischemia model is used as a pathological model of Buerger's disease and chronic arteriosclerosis obliterans. In the production of such a model, a blood vessel in the hindlimb of a mouse is dissected to induce ischemia in the region supplied by the blood vessel. The surgical dissection also causes inflammation. The ischemia and inflammation induce angiogenesis. The newly formed blood vessels have increased permeability, which induces edema in the muscles of the hindlimb. An experiment was performed to determine whether LPA inhibits such increased permeability of newly formed blood vessels induced by inflammation or ischemia.
C57BL/6 NCrSlc mice aged 6 weeks (females, SLC, Inc.) were used. An incision was made in the inguinal skin of the right hindlimb under anesthesia with pentobarbital (Kyoritsu Seiyaku Corporation). The femoral vein was ligated at the proximal end, and the saphenous artery and vein were ligated at the distal end. The arteries and veins were excised along with their side branches. The skin incision was closed with a sterilized surgical suture (Natsume Seisakusho). The animal was placed in a 37° C. incubator until the animal recovered from anesthesia. […] At 24 hours after the final administration, the hindlimb circumference was measured.

[3] = tested on: B16-BL6 cells; experiment: Lung metastasis from primary lesion in B16-BL6 cell tumor-bearing mice; format: in vivo; conditions: B16-BL6 tumors, LPA 3 mg/kg i.p. once daily until day 21, counted on day 42, vs control, p<0.01
Description: B16-BL6 cells (1×10^6 cells in 100 μL PBS per animal) were subcutaneously injected into C57BL/6 NCrSlc mice aged 8 weeks (females, SLC, Inc.). On day 7 post-inoculation of B16-BL6 cells, mice with a tumor volume of 30 to 50 mm^3 were selected. The mice were divided into two groups: control group and LPA group (n=3). LPA (3 mg/kg in 100 μL PBS) or PBS (100 μL) was administered intraperitoneally. LPA or PBS was administered once daily until day 21 post-inoculation. On day 42 post-inoculation of B16-BL6 cells, mice were euthanized and the lung was harvested. The number of metastatic colonies in the harvested lung was counted under a stereoscopic microscope (Leica). For the statistical analysis, Student's t-test was performed.

[4] = tested on: LLC cell tumors; experiment: Doxorubicin delivery from tumor blood vessels to tumor tissues after LPA administration; format: in vivo; conditions: LLC tumor-bearing mice, LPA 3 mg/kg i.p., doxorubicin 1.5 mg/kg i.v. 24 hours later, tumors harvested after 20 minutes
Description: LLC cells were subcutaneously inoculated into C57BL/6 NCrSlc mice aged 8 weeks (females, SLC, Inc.) in the same manner as in Example 1. An LPA administration solution was prepared in the same manner as in Example 1. On day 11 post-inoculation of LLC cells, mice with a tumor volume of 100 to 120 mm^3 were selected. The mice were divided into two groups: control group and LPA group (n=3). LPA (3 mg/kg in 100 μL PBS) or PBS (100 μL) was administered intraperitoneally. At 24 hours after LPA or PBS administration, doxorubicin (doxorubicin hydrochloride, Nippon Kayaku Co., Ltd.) was administered to the tail vein of the mice at a dose of 1.5 mg/kg under anesthesia with pentobarbital. The doxorubicin was prepared as a solution by dissolving and diluting the doxorubicin hydrochloride in physiological saline (Otsuka Pharmaceutical Co., Ltd.) to a concentration of 1.5 mg/kg and homogenizing the solution with an ultrasonic cleaner for 1 minute before administration. Doxorubicin is an autofluorescent anticancer drug that can be detected at an excitation wavelength of 480 nm and a measurement wavelength of 575 nm. At 20 minutes after administration of doxorubicin, the tumors were harvested from the mice, and the tumor specimens were prepared in the same manner as in Example 1 except that the thickness of the sections was 20 μm. […]

lysophosphatidic acid [LPA]
duration of the increased barrier function [1]: the increased barrier function in endothelial cells was maintained over a long period of time
electric resistance (Rb), barrier function in endothelial cells ([1]; serum-free medium with 0.1% BSA, vs control): increased the electric signals as compared with the control
hindlimb circumference (edema) [2]: significantly reduced
lung metastasis (number of lung metastatic colonies) [3]: significantly inhibited
delivery of doxorubicin from blood vessels to tumor [4]: delivery of doxorubicin from the blood vessels to tumors in the deep lobe was observed
